Measured values as given in patent US6573247B1, “Anti-viral pyrimidine nucleoside analogues” (University College Cardiff Consultants Limited, priority 1997, dated 2003).
Entries after “also recorded” stand apart in the source; their conditions may differ. Like-named read-outs stand apart in the source and are kept apart here.

Legend:
[1] = test system: VZV; conditions: cited from earlier work
[2] = test system: HSV-1; conditions: cited from earlier work
[3] = test system: HSV-2; conditions: cited from earlier work
[4] = test system: CMV; conditions: cited from earlier work
[5] = test system: human embryonic lung fibroblast (HEL) cells; experiment: CC50 in tissue culture assay; type: cell-based
Experimental: (§1) Each of the products of Examples 1, 2, 3 and 4 was tested in vitro in tissue culture assays for potent antiviral action with respect to varicella zoster virus (VZV). Acyclovir was included in the test procedure as a control. VZV (strains OKa and YS) induced cytopathogenicity in human embryonic lung fibroblast (HEL) cells was measured 7 days post infection. EC50 was defined as the drug concentration (in μM) required to reduce virus-induced cytopathicity by 50%.
(§2) Each of the products of Examples 7 and 8 was tested in vitro in tissue culture assays for potent antiviral action with respect to varicella zoster virus (VZV). Acyclovir was included in the test procedure as a control. EC50 and CC50 values were measured as described under examples 1 to 6 above. […]

[6] = CC50 in tissue culture assay; type: cell-based, human; conditions: human
Experimental: as §1, §2

[7] = test system: cytomegalovirus (CMV); experiment: CMV induced cytopathogenicity in HEL cells (in vitro tissue culture assay); type: cell-based; conditions: for EC50: Table IV, CMV induced cytopathogenicity in HEL cells
Experimental: The product of Example 8 was additionally tested in vitro in tissue culture assays for potent antiviral action with respect to cytomegalovirus (CMV). CMV induced cytopatho-genicity in human embryonic lung fibroblast (HEL) cells was measured post infection. EC50 and CC50 were defined as above for VZV. The equivalent data for the known CMV active agent dihydroxypropyl guanine (DHPG) is included in Table IV as a control.

[8] = test system: varicella zoster virus (VZV) (strains OKa and YS); experiment: microbe, parasite or virus in culture; type: cell-based; conditions: for EC50: read-out: EC50/VZV/μM; for antiviral activity with respect to varicella zoster virus (in words): verbal assessment
Experimental: VZV (strains OKa and YS) induced cytopathogenicity in human embryonic lung fibroblast (HEL) cells was measured 7 days post infection. EC50 was defined as the drug concentration (in μM) required to reduce virus-induced cytopathicity by 50%.
The values of EC50 and CC50 were measured as above.

[9] = Table I, VZV strains OKa and YS, HEL cells, 7 days post infection, concentration reducing virus-induced cytopathicity by 50%
[10] = Table II, X = O, R chain length series, concentration reducing virus-induced cytopathicity by 50%
[11] = Table III, measured as under examples 1 to 6

O=c1nc2occc2cn1C1CC(O)C(CO)O1 (stereo not shown)
activity in in vitro assay against VZV [1]: inactive | activity in in vitro assay against HSV-1 [2]: inactive | activity in in vitro assay against HSV-2 [3]: inactive | activity in in vitro assay against CMV [4]: inactive

Nc1nc2c(ncn2COCCO)c(=O)[nH]1 [Acyclovir, reference compound]
CC50 ([5]; human): > 100 µM | CC50 [6]: > 100000 nM

Nc1nc2c(ncn2COC(CO)CO)c(=O)[nH]1 [DHPG, dihydroxypropyl guanine, reference compound]
EC50 [7]: 3.1 µM | CC50 [5]: > 200 µM

CCCCCCCCCCCCc1cc2cn([C@H]3C[C@H](O)[C@@H](CO)O3)c(=O)nc2o1 [Example 1, 3-(2′-Deoxy-β-D-ribofuranosyl)-6-dodecyl-2,3dihydrofuro[2,3-d]pyrimidin-2-one]
EC50 [8, 9]: ≤ 1.2 µM | EC50 [8, 10]: ≤ 1.2 µM | antiviral activity with respect to varicella zoster virus (in words) [8]: antiviral activity comparable to acyclovir | CC50 ([5]; Table I, read-out: CC50/μM): > 200 µM

CCCCCCCCCCc1cc2cn([C@H]3C[C@H](O)[C@@H](CO)O3)c(=O)nc2o1 [Example 2, 3-(2′-Deoxy-β-D-ribofuranosyl)-6-decyl-2,3-dihydrofuro[2,3-d]pyrimidin-2-one]
EC50 [8, 9]: 0.005 µM | EC50 [8, 10]: 0.005 µM | antiviral activity with respect to varicella zoster virus (in words) [8]: extremely potent antiviral activity | CC50 [5]: > 50 µM

CCCCCCCCc1cc2cn(C3CC(O)C(CO)O3)c(=O)nc2o1 [Example 3, 3-(2′-Deoxy-β-D-ribofuranosyl)-6-octyl-2,3-dihydrofuro[2,3-d]pyrimidin-2-one]
EC50 ([8]; Human alphaherpesvirus 3, HEL, 168 h): 0.003 µM | EC50 ([8]; Human alphaherpesvirus 3, HEL): 0.03 µM | antiviral activity with respect to varicella zoster virus (in words) [8]: extremely potent antiviral activity; also recorded: antiviral activity comparable to acyclovir | CC50 [6]: > 50000 nM

CCCCCCc1cc2cn([C@H]3C[C@H](O)[C@@H](CO)O3)c(=O)nc2o1 [Example 4, 3-(2′-Deoxy-β-D-ribofuranosyl)-6-hexyl-2,3-dihydrofuro[2,3-d]pyrimidin-2-one]
EC50 [8, 9]: 1.3 µM | EC50 [8, 10]: 1.3 µM | CC50 [5]: > 200 µM

CCCCCc1cc2cn([C@H]3C[C@H](O)[C@@H](CO)O3)c(=O)nc2o1 [Example 5, 3-(2′-Deoxy-β-D-ribofuranosyl)-6-pentyl-2,3-dihydrofuro[2,3-d]pyrimidin-2-one]
EC50 [8, 10]: 3 µM

CCCCCCCc1cc2cn([C@H]3C[C@H](O)[C@@H](CO)O3)c(=O)nc2o1 [Example 6, 3-(2′-Deoxy-β-D-ribofuranosyl)-6-heptyl-2,3-dihydrofuro[2,3-d]pyrimidin-2-one]
EC50 [8, 10]: 0.17 µM

O=c1nc2oc(CCCCCCCCCO)cc2cn1[C@H]1C[C@H](O)[C@@H](CO)O1 [Example 7, 3-(2′-Deoxy-β-D-ribofuranosyl)-6-(9-hydroxynonyl)-2,3′-dihydrofuro[2,3-d]pyrimidin-2-one]
EC50 [8, 11]: 0.4 µM | CC50 [5]: > 200 µM

O=c1nc2oc(CCCCCCCCCCl)cc2cn1C1CC(O)C(CO)O1 (stereo not shown) [Example 8, 6-(9-chlorononyl)-3-(4-hydroxy-5-(hydroxymethyl)tetrahydro-2-furanyl)-2,3-dihydrofuro[2,3,-d]pyrimidin-2-one]
EC50 [8, 11]: 0.006 µM | EC50 [7]: 7.2 µM | antiviral activity with respect to CMV (in words) ([7]; verbal assessment): comparable to DHPG

O=c1nc2oc(CCCO)cc2cn1[C@H]1C[C@H](O)[C@@H](CO)O1 [Example 9, 3-(2′-Deoxy-β-D-ribofuranosyl)-6-(3-hydroxypropyl)-2,3-dihydrofuro[2,3-d]pyrimidin-2-one]
EC50 ([8]; Table V): 9.7 µM | antiviral activity with respect to varicella zoster virus (in words) [8]: low activity | CC50 [5]: > 200 µM

O=c1nc2oc(CCCCO)cc2cn1[C@H]1C[C@H](O)[C@@H](CO)O1 [Example 10, 3-(2′-Deoxy-β-D-ribofuranosyl)-6-(4-hydroxybutyl)-2,3-dihydrofuro[2,3-d]pyrimidin-2-one]
EC50 ([8]; Table V): 29 µM | antiviral activity with respect to varicella zoster virus (in words) [8]: low activity | CC50 [5]: > 200 µM

CCCCCCc1cc2cn([C@H]3C[C@H](O)[C@@H](CO)O3)c(=O)nc2[nH]1 [Example 12, 3-(2′-Deoxy-β-D-ribofuranosyl)-6-hexyl,3,7-dihydro-2H-pyrrolo[2,3-d]pyrimidin-2-one]
EC50 ([8]; Table VII): > 50 µM

CCCCCCCCc1cc2cn([C@H]3C[C@H](O)[C@@H](CO)O3)c(=O)nc2[nH]1 [Example 13, 3-(2′-Deoxy-β-D-ribofuranosyl)-6-octyl,3,7-dihydro-2H-pyrrolo[2,3-d]pyrimidin-2-one]
EC50 ([8]; Table VII): 0.15 µM

CCCCCCCCCCCCc1cc2cn([C@H]3C[C@H](O)[C@@H](CO)O3)c(=O)nc2[nH]1 [Example 14, 3-(2′-Deoxy-β-D-ribofuranosyl)-6-dodecyl-3,7-dihydro-2H-pyrollo[2,3-d]pyrimidin-2-one]
EC50 ([8]; Table VII): 3.7 µM | CC50 [5]: > 200 µM
